This is an account of results in patent publication US12077503B2, “Substituted cyclic amides and their use as herbicides” (FMC CORPORATION, priority 2015, dated 2024).

What all share (assay): Test A preemergence
What all share (assay type): in vivo

Assay [1] concerns barnyardgrass (Echinochloa crus-galli). As to conditions: Echinochloa crus-galli, pre-emergence, 240 h, preemergence, 0 to 100 scale where 0 is no effect and 100 is complete control, read-out: Barnyardgrass plant response rating; for pest or weed control at 125 g/ha: 125 g ai/ha; for pest or weed control at 500 g/ha: 500 g ai/ha. The gist of the method: (§1)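 Seeds sprayed preemergence with a directed soil spray, or plants at 2 to 10 cm height and one- to two-leaf stage sprayed postemergence, with test chemicals in a non-phytotoxic solvent mixture containing surfactant, in loam soil–sand blend. Injury rated visually against untreated controls after about 10 d in greenhouse, 0 (no effect) to 100 (complete control).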

For assay [2], the system named is pigweed (Amaranthus retroflexus). As to conditions: Amaranthus retroflexus, pre-emergence, 240 h, preemergence, 0 to 100 scale where 0 is no effect and 100 is complete control, read-out: Pigweed plant response rating; for pest or weed control at 125 g/ha: 125 g ai/ha; for pest or weed control at 500 g/ha: 500 g ai/ha.
Assay [3] deals with ragweed (common ragweed, Ambrosia elatior). The note with it: Ambrosia artemisiifolia, pre-emergence, 240 h, preemergence, 0 to 100 scale where 0 is no effect and 100 is complete control, read-out: Ragweed plant response rating; for pest or weed control at 125 g/ha: 125 g ai/ha; for pest or weed control at 500 g/ha: 500 g ai/ha. The gist of the method:
as §1

For assay [4], the system named is ryegrass, Italian (Italian ryegrass, Lolium multiflorum). The note with it: Lolium multiflorum, pre-emergence, 240 h, preemergence, 0 to 100 scale where 0 is no effect and 100 is complete control, read-out: Ryegrass, Italian plant response rating; for pest or weed control at 125 g/ha: 125 g ai/ha; for pest or weed control at 500 g/ha: 500 g ai/ha. The gist of the method:
as §1

The subject of the next assay is Kochia (Kochia scoparia). As to conditions: Bassia scoparia, pre-emergence, 240 h, preemergence, 0 to 100 scale where 0 is no effect and 100 is complete control, read-out: Kochia plant response rating; for pest or weed control at 125 g/ha: 125 g ai/ha; for pest or weed control at 500 g/ha: 500 g ai/ha. An outline of the steps:
as §1

[5] abbreviates: visual injury rating, approximately 10 d.

Structures are written as SMILES. Like-named read-outs stand apart in the source and are kept apart here.

In the case of `CN1CC[C@H](c2cccc(C(F)(F)F)c2)[C@@H](C(=O)Nc2cccc(F)c2Cl)C1=O` [Compound 1158], the pest or weed control at 125 g/ha in assay [1] (approx. 10 d) was found to be 90%; in assay [2] (approx. 10 d), 0%; in assay [3] (approx. 10 d) it was 0%; in assay [4] (approx. 10 d), 60%; in the assay with Kochia (Kochia scoparia) (approx. 10 d) it was 30%. The pest or weed control at 500 g/ha in assay [1] is 100%; in assay [2], 0%; in assay [3] it was 0%; in assay [4] it was 70%; in the assay on Kochia (Kochia scoparia), 30%.

Turning to `Cc1nc([C@H]2CNC(=O)[C@@H]2C(=O)Nc2ccccc2F)cs1` [Compound 1179], the pest or weed control at 125 g/ha (in assay [1] (approx. 10 d); in assay [2] (approx. 10 d); in assay [3] (approx. 10 d); in assay [4] (approx. 10 d); with Kochia (Kochia scoparia) (approx. 10 d)) was 0% in each case. Besides, the pest or weed control at 500 g/ha (in assay [1]; in assay [2]; in assay [3]; in assay [4]; in the assay on Kochia (Kochia scoparia)) was 0% each time.

For `Cc1cc([C@H]2CN(C)C(=O)[C@@H]2C(=O)Nc2ccccc2F)on1` [Compound 1195], the pest or weed control at 125 g/ha (in assay [1] (setting [5]); in assay [2] (setting [5]); in assay [3] (setting [5]); in assay [4] (setting [5]); in the assay with Kochia (Kochia scoparia) (setting [5])) was 0% each time. Besides, the pest or weed control at 500 g/ha turned out to be 80% in assay [1]; 0% in assay [2]; 0% in assay [3]; 0% in assay [4]; 0% in the assay on Kochia (Kochia scoparia).

Take `Cc1c(F)cccc1NC(=O)[C@H]1C(=O)N(C)C[C@@H]1c1ccc(C(F)(F)F)nc1` [Compound 1197]: the pest or weed control at 125 g/ha was determined as 100% in assay [1] (setting [5]); 80% in assay [2] (setting [5]); 100% in assay [3] (setting [5]); 70% in assay [4] (setting [5]); 100% with Kochia (Kochia scoparia) (setting [5]). Besides, the pest or weed control at 500 g/ha in assay [1] turned out to be 100%; in assay [2] it was 80%; in assay [3] it was 100%; in assay [4], 70%; in the assay on Kochia (Kochia scoparia) it was 100%.

Regarding `COc1cc(C(F)(F)F)ccc1[C@H]1CNC(=O)[C@@H]1C(=O)Nc1ccccc1F` [Compound 1202], the pest or weed control at 125 g/ha in assay [1] (setting [5]) turned out to be 90%; in assay [2] (setting [5]), 0%; in assay [3] (setting [5]), 0%; in assay [4] (setting [5]) it was 0%; in the assay on Kochia (Kochia scoparia) (setting [5]), 20%. Further, the pest or weed control at 500 g/ha is 90% in assay [1]; 0% in assay [2]; 90% in assay [3]; 60% in assay [4]; 60% with Kochia (Kochia scoparia).

`COc1ccc([C@H]2CN(C)C(=O)[C@@H]2C(=O)Nc2cccc(F)c2F)c(OC)c1` [Compound 1209]: the pest or weed control at 125 g/ha is 90% in assay [1] (setting [5]); 0% in assay [2] (setting [5]); 60% in assay [3] (setting [5]); 0% in assay [4] (setting [5]); 60% with Kochia (Kochia scoparia) (setting [5]). Further, the pest or weed control at 500 g/ha came out at 90% in assay [1]; 0% in assay [2]; 90% in assay [3]; 50% in assay [4]; 90% in the assay on Kochia (Kochia scoparia).

On to `COc1cc([C@H]2CN(C)C(=O)[C@@H]2C(=O)Nc2cccc(F)c2F)cc(OC)c1OC` [Compound 1210], for which the pest or weed control at 125 g/ha in assay [1] (setting [5]) was 90%; in assay [2] (setting [5]), 0%; in assay [3] (setting [5]) it was 0%; in assay [4] (setting [5]), 20%; in the assay with Kochia (Kochia scoparia) (setting [5]) it was 0%. Moreover, the pest or weed control at 500 g/ha stood at 100% in assay [1]; 0% in assay [2]; 0% in assay [3]; 50% in assay [4]; 10% in the assay on Kochia (Kochia scoparia).

In the case of `CSc1ccccc1NC(=O)[C@H]1C(=O)N(C)C[C@@H]1c1ccc(OC(F)F)cc1` [Compound 1212], the pest or weed control at 125 g/ha was 80% in assay [1] (setting [5]); 80% in assay [2] (setting [5]); 40% in assay [3] (setting [5]); 0% in assay [4] (setting [5]); 100% in the assay on Kochia (Kochia scoparia) (setting [5]). Moreover, the pest or weed control at 500 g/ha in assay [1] amounted to 100%; in assay [2], 90%; in assay [3] it was 90%; in assay [4], 70%; with Kochia (Kochia scoparia), 100%.

Turning to `Cc1ccc([C@H]2CCN(C)C(=O)[C@@H]2C(=O)Nc2ccc(F)c(F)c2F)cc1` [Compound 1221], the pest or weed control at 125 g/ha worked out at 90% in assay [1] (setting [5]); 0% in assay [2] (setting [5]); 20% in assay [3] (setting [5]); 20% in assay [4] (setting [5]); 40% in the assay with Kochia (Kochia scoparia) (setting [5]). Also, the pest or weed control at 500 g/ha in assay [1] is 100%; in assay [2] it was 50%; in assay [3], 70%; in assay [4] it was 80%; in the assay on Kochia (Kochia scoparia), 50%.

Consider `CSc1ccccc1NC(=O)[C@H]1C(=O)N(C)CC[C@@H]1c1ccc(C)cc1` [Compound 1222], for which the pest or weed control at 125 g/ha (in assay [1] (setting [5]); in assay [2] (setting [5]); in assay [3] (setting [5]); in assay [4] (setting [5]); with Kochia (Kochia scoparia) (setting [5])) was 0% each time. The pest or weed control at 500 g/ha in assay [1] worked out at 20%; in assay [2], 0%; in assay [3], 0%; in assay [4], 0%; with Kochia (Kochia scoparia) it was 40%.

For `Cc1c(F)cccc1NC(=O)[C@H]1C(=O)N(C)C[C@@H]1c1ccc(F)cc1` [Compound 1235], the pest or weed control at 125 g/ha in assay [1] (setting [5]) amounted to 100%; in assay [2] (setting [5]) it was 30%; in assay [3] (setting [5]) it was 70%; in assay [4] (setting [5]), 50%; with Kochia (Kochia scoparia) (setting [5]) it was 60%. Moreover, the pest or weed control at 500 g/ha in assay [1] came to 100%; in assay [2], 90%; in assay [3], 90%; in assay [4] it was 60%; in the assay with Kochia (Kochia scoparia), 80%.
